Reference: patent US20230128137A1, “BENZO FIVE-MEMBERED CYCLIC COMPOUND” (MEDSHINE DISCOVERY INC., priority 2020, published 2023)

Experiments:
RS4;11 cells = assay: CTG (CellTiter-Glo) test of inhibition of RS4;11 cell proliferation; format: cell-based; settings: Homo sapiens, 72 hours incubation
Protocol: 2.1 Experimental objectives: To obtain the IC50 value of the test compound in RS4;11 cell lines;
2.2 incubation time: 72 hours;
2.3 experimental method: CTG (Cell Titer-Glo™ Luminescent Cell Viability Assay);
a. when the cells were fused to 80%, the cells were collected and counted;
b. RS4; 11 cell suspension was diluted to 5000 cells/well and 20 uls of cell suspension was seeded in each well of 384-well plate;
c. the cell plates were placed back to 37° C. and incubated in a 5% carbon dioxide incubator for 24 hours;
d. the test compound was prepared into DMSO solution, and 5 μL of each was added to the designated well of the test plate, and the final concentration of DMSO solution was 0.5%;
e. initiation cell viability was detected by CTG;
f. the test plate was put back into the incubator and incubated for another 72 hours;
g. after 72 hours incubation, CellTiter-Glo™ luminescent cell viability assay was completed according to the manufacturer's manual;

Bcl-2 = molecular target: T1, Bcl-2 (Homo sapiens, UniProt P10415); assay: HTRF competition test, Bcl-2 with FAM-BAK peptide (enzymology experiment); format: binding; settings: 4 nM Bcl-2 and 100 nM FAM-BAK, read-out: IC50 (nM) for inhibition of Bcl-2 enzyme
T1 construct: Human recombinant Bcl-2 (amino acid 1-207); purchased Reaction Biology Corporation (RBC) APT-11-441; host or cells: E. coli
T1 sequence (P10415 1-207): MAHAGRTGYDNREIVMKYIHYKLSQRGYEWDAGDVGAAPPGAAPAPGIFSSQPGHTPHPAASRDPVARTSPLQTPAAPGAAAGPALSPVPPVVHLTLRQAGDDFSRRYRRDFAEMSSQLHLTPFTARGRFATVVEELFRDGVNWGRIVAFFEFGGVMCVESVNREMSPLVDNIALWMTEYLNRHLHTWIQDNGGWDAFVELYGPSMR
Protocol: (§1) This experiment was based on the competition between fluorescently-labeled Bak/Bad/Noxa peptides and GST-labeled Bcl family proteins. The fluorescence detection method based on HTRF was to observe the binding degree by using the fluorescence ratio between Tb-labeled anti-GST and FAM-labeled peptides. This peptide binds to the surface of the Bcl family protein pocket, which is essential for its anti-apoptotic function.
(§2) 1.1 Experimental reagents: analysis buffer: 20 mM potassium phosphate, pH 7.5, 50 mM sodium chloride, 1 mM EDTA, 0.005% Tritonx-100 and 1% DMSO.
(§3) 1.2 Probe: 5,6-FAM-peptide
(§4) 1.4 Experimental Conditions:
4 nM Bcl-2 and 100 nM FAM-BAK
(§5) a) The Bcl enzyme reaction solution was prepared in the newly prepared analysis buffer;
(§6) b) the Bcl enzyme reaction solution was provided;
(§7) c) the compound was first prepared into a 100% dimethyl sulfoxide solution, and then the compound solution was mixed with the Bcl enzyme reaction solution using (Echo550; nanoliter range) technology, and co-incubated for 10 minutes;
(§8) d) the FAM peptide solution was added.
(§9) e) the mixed solution was gently stirred in dark and room temperature, and co-cultured for 10 minutes.
(§10) f) Anti-GST solution was added.
(§11) g) The mixed solution was gently stirred in dark and room temperature, and co-cultured for 1 hour.
(§12) h) The HTRF high-frequency fluorescence ratio was tested, and the IC50 values were calculated.

Bcl-xL = molecular target: T2, Bcl-xL (Homo sapiens, UniProt Q07817); assay: HTRF competition test, Bcl-xL with FAM-Bad peptide (enzymology experiment); format: binding; settings: 3 nM Bcl-xL and 40 nM FAM-Bad, read-out: IC50 (nM) for inhibition of Bcl-xL enzyme
T2 construct: Human recombinant Bcl-xL (amino acid 1-209); purchased Reaction Biology Corporation (RBC) APT-11-442; host or cells: E. coli
T2 sequence (Q07817 1-209): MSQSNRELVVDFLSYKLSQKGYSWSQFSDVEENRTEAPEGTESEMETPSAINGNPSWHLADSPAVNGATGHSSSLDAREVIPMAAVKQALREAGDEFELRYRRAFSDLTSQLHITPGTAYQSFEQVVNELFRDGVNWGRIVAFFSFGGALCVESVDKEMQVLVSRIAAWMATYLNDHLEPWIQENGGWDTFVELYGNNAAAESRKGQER
Protocol: as §1, §2, §3, §4
3 nM Bcl-xL and 40 nM FAM-Bad
as §5, §6, §7, §8, §9, §10, §11, §12

[1] = Liver microsome metabolic stability in vitro, SD rat; format: in vitro ADME; settings: SD rat liver microsomes; for Remaining (T = 60 min): 60 min incubation
Protocol: (§13) 3.2 preparation of nicotinamide adenine dinucleotide phosphate cofactor solution: an appropriate amount of NADPH powder was weighed and diluted into 10 mM magnesium chloride solution (working solution concentration: 10 unit/mL; final concentration of reaction system: 1 unit/mL);
(§14) 3.3 preparation of liver microsomes: an appropriate concentration working solution of liver microsomes (human, SD rat, CD-1 mouse, beagle dog) was prepared in 100 mM potassium phosphate buffer;
(§15) 3.4 preparation of quenching solution: cold (4° C.) acetonitrile containing 200 ng/mL tolbutamide and 200 ng/mL labetalol as internal standard (IS) was used as quenching solution;
(§16) 3.5 experimental operation:
(§17) a. empty “incubation” plates T60 and NCF60 were preheated for 10 minutes;
(§18) b. the liver microsomes were diluted to 0.56 mg/mL with 100 mM phosphate buffer;
(§19) c. 445 μL of microsomal working solution (0.56 mg/mL) was transferred to the preheated “incubation” plates T60 and NCF60, and then the“incubation” plates T60 and NCF60 were preincubated for 10 min with continuous shaking at 37° C. 54 μL of liver microsomes were transferred to a blank plate, and 6 μL of NAPDH cofactor was added to the blank plate, and then 180 μL of quenching solution was added thereto;
(§20) e. for NCF60 plate, 50 μL of buffer was added thereto and the mixture was fully mixed for three times. Timing was started; the plate was shaken at 37° C. for 60 minutes;
(§21) f. in “quenching” plate TO, 180 μL of quenching solution and 6 μL of NAPDH cofactor were addded to make sure that the plate was cooled down to prevent evaporation;
(§22) g. for T60 plates, the mixture was fully mixed for three times, and 54 μL of mixture was immediately transferred to the “quenching” plate at the 0 min time point. 44 μL of NAPDH cofactor was then added to the culture plate (T60). Timing was started; the plate was shaken at 37° C. for 60 minutes;
(§23) h. at 5, 10, 20, 30 and 60 min, 180 μL of quenching solution was added to the “quenching” plate, and the mixture was mixed for one time, and 60 μL of sample was continuously transferred from the T60 plate to the “quenching” plate at each time point;
(§24) i. for NCF60: the mixture was mixed for one time, and 60 μL of sample was transferred from the NCF60 culture dish to the “quenching” plate containing quenching solution at 60 minutes time point;
(§25) j. all sampling plates were shaked for 10 minutes, then centrifuged at 4000 rpm for 20 minutes at 4° C.;
(§26) k. 60 μL of supernatant was transferred into 180 μL of HPLC water and stirred with a plate shaker for 10 min;
(§27) 1. before LC-MS/MS analysis, each bioanalysis plate was sealed and shaked for 10 minutes.

[2] = Liver microsome metabolic stability in vitro, beagle dog; format: in vitro ADME; settings: beagle dog liver microsomes; for Remaining (T = 60 min): 60 min incubation
Protocol: as §13, §14, §15, §16, §17, §18, §19, §20, §21, §22, §23, §24, §25, §26, §27

[3] = Liver microsome metabolic stability in vitro, CD-1 mouse; format: in vitro ADME; settings: CD-1 mouse liver microsomes; for Remaining (T = 60 min): 60 min incubation
Protocol: as §13, §14, §15, §16, §17, §18, §19, §20, §21, §22, §23, §24, §25, §26, §27

[4] = Liver microsome metabolic stability in vitro, human; format: in vitro ADME; settings: human liver microsomes; for Remaining (T = 60 min): 60 min incubation
Protocol: as §13, §14, §15, §16, §17, §18, §19, §20, §21, §22, §23, §24, §25, §26, §27

## Cn1cnc2c(S(=O)(=O)NC(=O)c3ccc(N4CCN(CC5=C(c6ccc(Cl)cc6)CC(C)(C)CC5)CC4)cc3Oc3cnc4[nH]ccc4c3)cc([N+](=O)[O-])c(NCC3CCOCC3)c21 [Compound 8]
RS4;11 cells
  IC50: 6.5 nM
Bcl-2
  IC50: 1.3 nM
Bcl-xL
  IC50: 1110 nM

## CC1(C)CCC(CN2CC=C(c3ccc(C(=O)NS(=O)(=O)c4cc([N+](=O)[O-])c(NCC5CCOCC5)c5[nH]cnc45)c(Oc4ccc5[nH]ccc5c4)c3)CC2)=C(c2ccc(Cl)cc2)C1 [Compound 5]
RS4;11 cells
  IC50: 10.2 nM
Bcl-2
  IC50: 2.6 nM
Bcl-xL
  IC50: 504 nM

## Cn1cnc2c(NCC3CCOCC3)c([N+](=O)[O-])cc(S(=O)(=O)NC(=O)c3ccc(N4CCN(CC5=C(c6ccc(Cl)cc6)CC(C)(C)CC5)CC4)cc3Oc3cnc4[nH]ccc4c3)c21 [Compound 6]
RS4;11 cells
  IC50: 4.6 nM
Bcl-2
  IC50: 2.4 nM
Bcl-xL
  IC50: 173 nM

## Cc1nc2c(S(=O)(=O)NC(=O)c3ccc(N4CCN(CC5=C(c6ccc(Cl)cc6)CC(C)(C)CC5)CC4)cc3Oc3cnc4[nH]ccc4c3)cc([N+](=O)[O-])c(NCC3CCOCC3)c2[nH]1 [Compound 9]
RS4;11 cells
  IC50: 1.9 nM
Bcl-2
  IC50: 3.6 nM
Bcl-xL
  IC50: 326 nM

## CC1(C)CCC(CN2CCN(c3ccc(C(=O)NS(=O)(=O)c4cc([N+](=O)[O-])c(NCC5COCCO5)c5[nH]cnc45)c(Oc4cnc5[nH]ccc5c4)c3)CC2)=C(c2ccc(Cl)cc2)C1 (centres unmarked) [Compound 7]
RS4;11 cells
  IC50: 6.8 nM

## CC1(C)CCC(CN2CCN(c3ccc(C(=O)NS(=O)(=O)c4cc([N+](=O)[O-])c(NCC5CCOCC5)c5[nH]ccc45)c(Oc4cnc5[nH]ccc5c4)c3)CC2)=C(c2ccc(Cl)cc2)C1 [Compound 1]
RS4;11 cells
  IC50: 1.4 nM

## O=C(O)Cc1ccccc1Nc1c(Cl)cccc1Cl [Diclofenac]
[1]
  CLint scaled at 1 µM: 174 mL/min/kg
  T1/2: 14.4 min
  Remaining (T = 60 min): 5.2%
[2]
  CLint scaled at 1 µM: < 13.8 mL/min/kg
  half-life at 1 µM: > 145 min
  Remaining (T = 60 min): 101%
[3]
  half-life at 1 µM: 63.5 min
  Remaining (T = 60 min): 53.0%
[4]
  Remaining (T = 60 min): 0.0%

## C[C@]12CC[C@H]3[C@@H](CCC4=CC(=O)CC[C@@]43C)[C@@H]1CC[C@@H]2O [Testosterone]
[1]
  CLint scaled at 1 µM: 2180 mL/min/kg
  T1/2: 1.1 min
  Remaining (T = 60 min): 0.0%
[2]
  CLint scaled at 1 µM: 81 mL/min/kg
  T1/2: 24.6 min
  Remaining (T = 60 min): 19%
[3]
  CLint scaled at 1 µM: 1370 mL/min/kg
  T1/2: 4.0 min
  Remaining (T = 60 min): 0.0%
[4]
  Remaining (T = 60 min): 5.7%
[4]; human
  CLint scaled at 1 µM: 155 mL/min/kg
  half-life at 1 µM: 8.9 min
